The values that follow come from patent US5972927A, “Diazepinoindoles as phosphodiesterase 4 inhibitors” (Jouveinal, priority 1996, dated 1999).

Structures are written as SMILES. Counter-ions that a name gives are not always drawn.

The first data set concerns inflammatory cells in rodents.
Test: not given
The following applies: in vitro; prior art; cited from earlier work.
Regarding `COc1ccc(C2CNC(=O)C2)cc1OC1CCCC1` (stereo not shown) [rolipram], the “activity of inflammatory cells in rodents” value is “inhibits the activity of inflammatory cells in rodents: inhibition of the synthesis of mediators by mastocytes, eosinophil and basophil polymorphonuclear leukocytes and monocytes; inhibition of chemotaxis and of the degranulation of polymorphonuclear leukocytes”.

Tested on in a further data set: not given
Test: not given
The following applies: prior art; cited from earlier work.
Consider `COc1ccc(C2CNC(=O)C2)cc1OC1CCCC1` (stereo not shown) [rolipram], for which the undesirable effects entry is “undesirable effects of the type involving nausea and vomiting”.

As for `Cn1c(=O)c2[nH]cnc2n(C)c1=O` [theophylline], the therapeutic index entry is on record as “low therapeutic index”; the undesirable effects entry was “undesirable effects such as nausea and headaches”.

Another data set deals with PDE 4. Put plainly: Inhibition of PDE 4 compared with rolipram, enzyme preparation obtained from the line U937. The format is biochemical, human. Particulars: ratio to rolipram on the same enzymatic preparation; PDE 4 from U937 line; inhibitor 0.1 to 100 μM. How it is done: The capacity of the compounds of formula (I) of the invention to inhibit cyclic nucleotide phosphodiesterases is evaluated by measuring their IC50 (concentration necessary to inhibit the enzymatic activity by 50%). In the case of PDEs 4, this value is compared to the IC50 of rolipram, a PDE 4-specific inhibitor, relative to the IC50 of rolipram on the IC50 of the product to be tested with respect to the same enzymatic preparation.
The various types of phosphodiesterase are obtained partially purified on a DEAE-cellulose column from guinea pig trachea and dog aorta according to a method adapted from W. J. Thompson et al., 1979, Advances in Cyclic Nucleotide Research, Vol. 10: 69-92, ed. G. Brooker et al. Raven Press, New York, and from P. J. Silver et al., 1988, Eur. J. Pharmacol. 150: 85-94, and from the U937 cell line of human origin, according to a method adapted from T. J. Torphy et al., 1992, J. Pharm. Exp. Ther. 263: 1195-1205.
Measurement of the enzymatic activity for the various types of PDE, and in particular for the PDEs 4, is then made according to a method also adapted from W. J. Thompson, Ibidem.
In order to determine the IC50, the enzymatic activity is measured in the presence of the inhibitor over a range of concentrations from 0.1 to 100 μM.
The following table illustrates the inhibitory activity of PDE 4 when compared with that of rolipram on an enzyme preparation obtained from the line U937.
For the molecule `Nc1cc2c3c(c1)C(c1ccccc1)=N[C@@H](NC(=O)c1cc4ccccc4cn1)C(=O)N3CC2` [Example 18, (3R)-Isoquinoline-3-carboxylic acid (9-amino-4-oxo-1-phenyl-3,4,6,7-tetrahydro[1,4]-diazepino[6,7,1-hi]indol-3-yl)amide], the “IC50 rolipram / IC50 example” value was 11.0. For `Nc1cc2c3c(c1)C(c1ccccc1)=N[C@@H](NC(=O)c1cc4ccccc4o1)C(=O)N3CC2` [Example 30, (3R)N-(9-amino-4-oxo-1-phenyl-3,4, 67-tetrahydro[1,4]diazepino[6,7,1-hi]indol-3-yl)-2-benzofuranecarboxamide], the “IC50 rolipram / IC50 example” value came to 15.0. As to `Cc1cc2nnc(C(=O)N[C@@H]3N=C(c4ccccc4)c4cc(N)cc5c4N(CC5)C3=O)c(C)n2n1` [Example 20, (3R)-4,7-Dimethylpyrazolo[5,1-c][1,2,4]triazine-3-carboxylic acid (9-amino-4-oxo-1-phenyl-3,4,6,7-tetrahydro[1,4]-diazepino[6,7,1-hi]indol-3-yl)amide], the “IC50 rolipram / IC50 example” value is 1.1.

In the case of `Nc1cc2c3c(c1)C(c1ccccc1)=N[C@@H](NC(=O)c1cnc4ccccc4c1)C(=O)N3CC2` [Example 19, (3R)-Quinoline-3-carboxylic acid (9-amino-4-oxo-1-phenyl-3,4,6,7-tetrahydro[1,4]-diazepino[6,7,1-hi]indol-3-yl)amide], the “IC50 rolipram / IC50 example” value is on record as 1.4. Consider `O=C(N[C@@H]1N=C(c2ccccc2)c2cc(O)cc3c2N(CC3)C1=O)c1cc2ccccc2cn1` [Example 1, (3R)-Isoguinoline-3-carboxylic acid (9-hydroxy-4-oxo-1-phenyl-3,4,6,7-tetrahydro-[1,4]diazepino[6,7,1-hi]indol-3-yl)amide], for which the “IC50 rolipram / IC50 example” value stood at 1.9. For the molecule `Nc1cc2c3c(c1)C(c1ccccc1)=N[C@@H](NC(=O)c1cc(Cl)c(N)c(Cl)c1)C(=O)N3CC2` [Example 4, (3R)-4-Amino-N-(9-amino-4-oxo-1-phenyl-3,4,6,7-tetrahydro[1,4]diazepino [6,7,1-hi]indol-3-yl)-3,5-dichlorobenzamide], the “IC50 rolipram / IC50 example” value is 33.0.

`Cc1cc2nnc(C(=O)N[C@@H]3N=C(c4ccccc4)c4cc(N5CCCC5)cc5c4N(CC5)C3=O)c(C)n2n1` [Example 32, (3R) 4,7-dimethyl-pyrazolo[5,1-c][1,2,4]triazine-3-carboxylic acid [4-oxo-1-pheny-9-(pyrrolidin-1-yl)-3,4,6,7-tetrahydro[1,4]diazepino[6,7,1-hi]indol-3-yl)-amide]: the “IC50 rolipram / IC50 example” value is 4.0.

As to `CN(C)c1cc2c3c(c1)C(c1ccccc1)=N[C@@H](NC(=O)c1cc(Cl)c(N)c(Cl)c1)C(=O)N3CC2` [Example 21, (3R)-4-Amino-3,5-dichloro-N-(9-dimethylamino-4-oxo-1-phenyl-3,4,6,7-tetrahydro[1,4]-diazepino[6,7,1-hi]indol-3-yl)benzamide], the “IC50 rolipram / IC50 example” value stood at 3.3.

`Nc1cc2c3c(c1)C(c1ccccc1)=N[C@@H](NC(=O)c1ccncc1)C(=O)N3CC2` [12A (salt)]: the “IC50 rolipram / IC50 example” value worked out at 5.7. The same measure, in the same setting: as for `Nc1cc2c3c(c1)C(c1ccccc1)=N[C@@H](NC(=O)c1ccncc1)C(=O)N3CC2` [Example 12, (3R)-N-(9-Amino-4-oxo-1-phenyl-3,4,6,7-tetra-hydro[1,4]diazepinor [6,7,1-hi]indol-3-yl)-isonicotinamide], the figure is 2.0. Consider `COc1cc(N)c(Cl)cc1C(=O)N[C@@H]1N=C(c2ccccc2)c2cc(N)cc3c2N(CC3)C1=O` [Example 8, (3R)-4-Amino-N-(9-amino-4-oxo-1-phenyl-3,4,6,7-tetrahydro[1,4]diazepino[6,7,1-hi]indol-3-yl)-5-chloro-2-methoxybenzamide], for which the “IC50 rolipram / IC50 example” value turned out to be 3.4.

For `CC(C)(C)OC(=O)Nc1cnccc1C(=O)N[C@@H]1N=C(c2ccccc2)c2cc(N)cc3c2N(CC3)C1=O` [Example 13, (3R)-3-t-Butyloxycarbonylamino-N-(9-amino-4-oxo-1-phenyl-3,4,6,7-tetrahydro[1,4]diazepino[6,7,1-hi]indol-3-yl)isonicotinamide], the “IC50 rolipram / IC50 example” value was 1.6.
